Measured values taken from patent publication US7183302B2, “Iminothiazolidinones as inhibitors of HCV replication” (priority 2002, dated 2007).
Like-named read-outs stand apart in the source and are kept apart here.

Key:
[1] = system: Y > H replicon cells (Huh-7); experiment: Alamar blue CC50 on Y > H replicon cells
[2] = system: Compound 1-r replicon cells (HCV 377-neo); experiment: FRET assay on selected Compound 1-r replicon cells; assay type: cell-based; details: initial test
Experimental: HCV 377-neo replicon cells were plated in 100-mm plates with ˜25% confluence after 24 hr seeding. Compound 1 was added at the final concentrations of 5, 10 and 20 μM in the presence of G418. Wild type replicon cells in the absence of the compound were used as a control. After 5–6 weeks, both wt replicon cells and selected cells were tested for their sensitivity to Compound 1. In addition, cell lines derived from individual colonies from different concentrations of selective Compound 1 were also isolated, expanded and tested. In the initial test, approximately 60-fold resistance, judged by the FRET assay, was observed between wt replicon cells and selected replicon cells (designated as Compound 1-r replicon cells).

[3] = system: wild-type HCV 377-neo replicon in Huh-7 cells; experiment: Colony formation under G418 selection, wild-type replicon RNA
[4] = system: HCV 1b-377-neo replicon cells (Huh-7); experiment: Alamar blue conversion (cellular toxicity, CC50), wild-type replicon cells; assay type: cell-based
[5] = system: HCV replicon (HCV 1b-377-neo replicon cells); experiment: HCV replicon cell line and FRET assay; assay type: cell-based
[6] = system: wild-type Blast/Luciferase HCV replicon; assay type: cell-based, HCV 1b
[7] = system: Y2065C Blast/Luciferase HCV replicon; assay type: cell-based, HCV 1b
HCV replicon [8] = experiment: Western analysis of NS3 in replicon cells; assay type: cell-based
Experimental: EC50 values were also determined by Western analysis performed according to the instructions for Chemiluminescence Immunology Kit (Cat# NEL105) Amersham, Arlington Heights, Ill. using a Molecular Dynamics Storm 860 phosphoimager and associated software. Experiments were done in duplicate. The primary and secondary antibody dilutions were at 1 to 5,000. Antisera was generated by immunizing rabbits with purified NS3 protease made from an E. Coli expression vector encoding the first 181 amino acids of HCV 1a NS3 with subsequent boosts. Bleeds were tested weekly and boosts continued until a positive signal on a control western was seen. Secondary antibody was a BioRad (#170-6515) Goat anti-Rabbit IgG HRP Conjugate (Cat# 170-6515) BioRad, Hercules, Calif. The protein samples for western analysis were from the same wells used for the FRET assay and were prepared by the addition of an equal volume of 2×SDS-PAGE buffer to the FRET assay mixture, heating and loading on a 10% gel for SDS-PAGE. Interferon alpha (Cat# I-4276) Sigma, St. Louis, Mo. (IFN-α) was obtained and stored as recommended.

HCV replicon [9] = experiment: HCV RNA detection by RT-PCR in replicon cells
[10] = Hepatitis C virus, HCV replicon cell line, FRET assay, read-out: Replicon Inhibition Range EC50
[11] = HCV replicon cell line, FRET assay, read-out: Replicon Inhibition Range EC50

Compound: C[C@H](NC(=O)OCc1ccccc1)C(=O)Nc1ccc(C2S/C(=N\c3cccc(F)c3)N(Cc3ccco3)C2=O)cc1 (stereo partly drawn) [Compound 1, (1S-(4-[2-(3-Fluorophenylimino)-3-furan-2-ylmethyl-4-oxo-thiazolidin-5-yl]-phenylcarbamoyl)ethyl)carbamic acid benzyl ester]
- CC50 [1]: > 5000 nM
- resistance between wt replicon cells and selected replicon cells [2]: approximately 60 fold
- Number of colonies ([3]; Wild-type RNA transfected, 2 μM Compound 1, 3 weeks G418 selection): 3
- reduction in colony number ([3]; wild-type replicon RNA, 2 μM Compound 1): 95%
- CC50 [4]: > 5000 nM

Compound: O=C(Nc1ccc(C2S/C(=N\c3cccc(Oc4ccccc4)c3)N(Cc3ccco3)C2=O)cc1)[C@@H]1CCCN1C(=O)OCc1ccccc1 (stereo partly shown) [Compound 34]
- EC50 [5, 10]: 100 to 1000 nM

Compound: C[C@H](NC(=O)OCc1ccccc1)C(=O)Nc1ccc(C2S/C(=N\c3ccc(C(F)(F)F)cc3)N(Cc3ccco3)C2=O)cc1 (stereo partly shown) [Compound 62]
- EC50 [5, 11]: 1000 to 5000 nM

Compound: C[C@H](NC(=O)OCc1ccccc1)C(=O)Nc1ccc(C2S/C(=N\c3ccc(N4CCOCC4)cc3)N(Cc3ccccn3)C2=O)cc1 (stereo partly shown) [Compound 80]
- EC50 [5, 11]: 100 to 1000 nM

Compound: O=C(Nc1ccc(C2S/C(=N\c3ccc(N4CCOCC4)cc3)N(Cc3cccnc3)C2=O)cc1)[C@@H]1CCCN1C(=O)OCc1ccccc1 (stereo partly shown) [Compound 81]
- EC50 [5, 11]: 100 to 1000 nM
- EC50 ([5]; Hepatitis C virus, 72 h, FRET assay, read-out: EC50 in monotherapy): 9 to 11 nM

Compound: CC(C)(C)/N=C1\SC(c2ccc(NC(=O)[C@@H]3CCC(=O)N3C(=O)OCc3ccccc3)cc2)C(=O)N1Cc1ccccn1 (stereo partly shown) [Compound 90]
- EC50 [5, 10]: 100 to 1000 nM

Compound: C[C@H](NC(=O)OCc1ccccc1)C(=O)Nc1ccc(C2S/C(=N\c3ccc(N4CCOCC4)cc3)N(c3ccccn3)C2=O)cc1 (stereo partly shown) [Compound 93]
- EC50 [5, 10]: 100 to 1000 nM

Compound: O=C(Nc1ccc(C2S/C(=N\c3ccc(N4CCOCC4)cc3)N(Cc3cccnc3)C2=O)cc1)[C@@H]1CCCN1C(=O)OCc1ccccc1 (stereo partly shown) [Compound 94]
- EC50 [5, 10]: < 100 nM

Compound: C[C@H](NC(=O)Cc1ccccc1)C(=O)Nc1ccc(C2S/C(=N\c3cccc(F)c3)N(Cc3ccco3)C2=O)cc1 (stereo partly drawn) [Compound 124, (N-{4-[2-(3-fluorophenylimino)-3-furan-2-ylmethyl-4-oxo-thiazolidin-5-yl]phenyl}-2S-(phenylacetylamino))propionamide]
- replication of the wild-type replicon ([6]; 0.5 μM Compound 124): completely inhibited
- rlu 48 h ([6]; wt clone, 0.5 μM 124, 48 h): 3237 rlu
- rlu 72 h ([6]; wt clone, 0.5 μM 124, 72 h): 3184 rlu
- CC50 [1]: > 5000 nM
- decrease in replication ([7]; Y2065C replicon, 0.5 μM Compound 124): 10–15%
- rlu 48 h ([7]; Y > C clone, 0.5 μM 124, 48 h): 7186 rlu
- rlu 72 h ([7]; Y > C clone, 0.5 μM 124, 72 h): 9696 rlu
- CC50 [4]: > 5000 nM

Compound: O=C(Nc1ccc(C2S/C(=N\c3cccc(F)c3)N(Cc3ccco3)C2=O)cc1)[C@@H]1CCCN1C(=O)Cc1ccccc1 (stereo partly shown) [Compound 127]
- EC50 [5, 10]: < 100 nM

Compound: IFN-α
- EC50 (HCV replicon [8]): 1.9 units of IFN-α per milliliter
- EC50 (HCV replicon [9]): 5.3 units of IFN-α per milliliter
- EC50 ([5]; FRET): 2.9 units of IFN-α per milliliter
